Tested on: autologous B cells lysed by CTL Clone 3
Assay: Chromium release assay with QW9-B53 specific CTL clone C3
Type: cell-based, human
Details: effector/target 1:1, technical replicate

Sequence: QATQEVKNW [QW9_S3T]
- lysis of autologous B cells (experiment-1): 6.79
- lysis of autologous B cells (experiment-2): 6.64
- lysis of autologous B cells (experiment-3): 6.63
- lysis of autologous B cells (experiment-4): 6.38
- lysis of autologous B cells (experiment-5): 6.72
- lysis of autologous B cells (experiment-6): 7.02
- lysis of autologous B cells (experiment-7): 6.68
- lysis of autologous B cells (experiment-8): 6.3

— article PMC10202051, “Molecular basis of differential HLA class I-restricted T cell recognition of a highly networked HIV peptide” (Nature Communications, 2023)
